Laboratory results as given in patent US20240165196A1, “Beta-Lactamase Inhibitors” (VIB VZW, priority 2021, published 2024).
Converted amounts (≈) assume the structure as drawn. Peptide text beside a SMILES is read from it.

What was measured:
Format in all cases: cell-based
E. coli strain UZ_TEM104 [1] = conditions: in presence of additive at 50 μg/mL
E. coli strain UZ_TEM104 [2] = conditions: peptide alone
Excerpt: In order to generate a synthetic amyloid peptide capable of inactivating the TEM-1 beta-lactamase enzyme by capitalizing on its aggregation propensity, we applied a previously developed design pattern for synthetic aggregating sequences. This involves a tandem repeat of the APR, each instance flanked by charged amino acids for solubility and separated by a short peptide linker^19,20,23 (FIG. 2G). Previous work has shown that good bacterial uptake can be achieved using one positively charged arginine residue on the N-terminal side of each APR in the tandem and two arginine residues on the C-terminal side. This has the additional benefit of reducing the self-aggregation of the peptides and increasing their solubility prior to target engagement. As before, we employed a single Pro residue as a linker between the APRs and focused on an APR length of seven, extending shorter APRs to this length by incorporating flanking amino acids unless they were obvious aggregation breakers (Arg, Lys, Asp, Glu or Pro, see Table 1). We obtained these peptides from solid phase synthesis, followed by HPLC purification to a purity judged by reverse phase chromatography of at least 90% (Genscript).
Determination of MIC values using the broth microdilution in the 96-well plate (BD Biosciences, Belgium) according to the EUCAST guideline, which was performed in 96-well polystyrene flat bottom microtiter plates (BD Biosciences). Briefly, a single colony was inoculated into 5 mL Difco™ Mueller Hinton Broth (BD Biosciences Ref 275730) and grown to the end-exponential growth phase in a shaking incubator at 37° C. Cultures were subsequently diluted to an MacFarland (0.5 optical density) then the culture was diluted to reach 10^6 CFU/mL in fresh MHB medium. 50 μl of different concentration of peptides ranging from 128 to 2 μg/mL were serially diluted to the sterile 96-well plate in MHB. 50 μL of the diluted bacteria in MHB were pipetted into 96-well plates to reach the final volume of 100 μL. The bacteria grown with the maximum concentration of carrier and medium were considered as positive and negative controls, respectively. The plates were statically incubated overnight at 37° C. to allow bacterial growth. OD was measured at 590 nm a multipurpose ultraviolet-visible plate reader, and the absorbance of the growth bacteria was measured using absorbance reader. Bacterial growth was also visually inspected and agreed well with the OD reading.

E. coli SH ? (APHA) = experiment: antimicrobial susceptibility testing, VITEK 2 AST Cards; as to Interpretation: key: S, susceptible; I, intermediate; R, resistant
Description: (§1) Beta-lactamase clinical samples were collected from University Hospitals Leuven and tested for ESBL production using the disk diffusion method^61. The beta-lactamase reference isolates were purchased from IHMA International Health management associates. Bacterial strains were cultivated in Mueller Hinton Broth (MHB, Difco) at 37° C. Whenever required growth media were supplemented with appropriate antibiotic to the medium or plates (kanamycin 30 μg/mL, L-arabinose 0.5 mg/mL, and IPTG 1 mM/mL). Escherichia coli BL21 (Thermo Fisher Scientific, Belgium) was used for cloning and plasmid amplification. For selection of antibiotic resistance colonies, E. coli carrying plasmids was grown in LB agar plates supplemented with the relevant antibiotic. Bacterial CFU counting was done on blood agar plates (BD Biosciences, Belgium) or MHA agar plates. Species identification and antibiograms for all clinical isolates were performed using MALDI-Tof and VITEK® 2 automated system (BioMérieux, France).

E. coli TEM-206 = experiment: as above
Description: as §1

E. coli NDM ? a = experiment: as above
Description: as §1

E. coli NDM ? b = experiment: as above
Description: as §1

E. coli TEM-104 = tested on: E. coli TEM-104; as to Interpretation: key: S, susceptible; I, intermediate; R, resistant
Description: as §1

E. coli TEM-148 = tested on: E. coli TEM-148; as to Interpretation: key: S, susceptible; I, intermediate; R, resistant
Description: as §1

E. coli TEM-1 ? = tested on: E. coli TEM-1 ?
Description: as §1

E. coli TEM-30 = tested on: E. coli TEM-30; as to Interpretation: key: S, susceptible; I, intermediate; R, resistant
Description: as §1
For Interpretation in this document: key: S, susceptible; I, intermediate; R, resistant.

Molecule	MIC penicillin (E. coli strain UZ_TEM104 [1])	MIC peptide (E. coli strain UZ_TEM104 [2])	Interpretation (E. coli SH ? (APHA))	MIC (E. coli SH ? (APHA))	Interpretation (E. coli TEM-206)	MIC (E. coli TEM-206)	Interpretation (E. coli NDM ? a)	MIC (E. coli NDM ? a)	Interpretation (E. coli NDM ? b)	MIC (E. coli NDM ? b)	Interpretation (E. coli TEM-104)	Interpretation (E. coli TEM-148)	MIC (E. coli TEM-148)	Interpretation (E. coli TEM-1 ?)	MIC (E. coli TEM-1 ?)	Interpretation (E. coli TEM-30)	MIC (E. coli TEM-30)	MIC (E. coli TEM-104)
Ac-RAGWFIARRPRAGWFIARR-NH2 [TEM5.0]	1600 µg/mL	100 µg/mL																
C[C@@H](O)[C@H]1C(=O)N2C(C(=O)O)=C(S[C@@H]3CN[C@H](C(=O)N(C)C)C3)[C@H](C)[C@H]12 [Meropen ? m]			S	≤ 0.25 µg/mL	S	≤ 0.25 µg/mL	R	≥ 16 µg/mL	I	8 µg/mL (≈ 20.9 µM)	S	S	≤ 0.25 µg/mL	S	≤ 0.25 µg/mL	S	≤ 0.25 µg/mL	
CO[C@@]1(NC(=O)Cc2cccs2)C(=O)N2C(C(=O)O)=C(COC(N)=O)CS[C@@H]21 [C ? tin]					S	≤ 4 µg/mL								S				
CN(C)c1cc(NC(=O)CNC(C)(C)C)c(O)c2c1C[C@H]1C[C@H]3[C@H](N(C)C)C(O)=C(C(N)=O)C(=O)[C@@]3(O)C(O)=C1C2=O [Tig ? cycline]			S															
Gentamicin			R		S	≤ 1 µg/mL	R	≥ 16 µg/mL	S	≤ 1 µg/mL	S	S	≤ 1 µg/mL	S	≤ 1 µg/mL	R	≥ 16 µg/mL	≤ 1 µg/mL
CO/N=C(\C(=O)N[C@@H]1C(=O)N2C(C(=O)O)=C(COC(N)=O)CS[C@H]12)c1ccco1 [C ? xime]			R		R	≥ 64 µg/mL	R	≥ 64 µg/mL	R	≥ 64 µg/mL	S	R	≥ 64 µg/mL	R	≥ 64 µg/mL	R	≥ 64 µg/mL	4 µg/mL (≈ 9.43 µM)
Ac-RLLTLASRRPRLLTLASRR-NH2 [TEM4.0]	1600 µg/mL	100 µg/mL																
CC(=O)N[C@@H](CCCNC(=N)N)C(=O)N[C@@H](Cc1ccccc1)C(=O)N[C@@H](Cc1ccccc1)C(=O)N[C@@H](C)C(=O)N[C@@H](C)C(=O)N[C@@H](Cc1ccccc1)C(=O)N[C@@H](CS)C(=O)N[C@@H](CC(C)C)C(=O)N[C@@H](CCCNC(=N)N)C(=O)N[C@@H](CCCNC(=N)N)C(=O)N[C@@H](CCCNC(=N)N)C(=O)N1CCC[C@H]1C(=O)N[C@@H](Cc1ccccc1)C(=O)N[C@@H](Cc1ccccc1)C(=O)N[C@@H](C)C(=O)N[C@@H](C)C(=O)N[C@@H](Cc1ccccc1)C(=O)N[C@@H](CS)C(=O)N[C@@H](CC(C)C)C(=O)N[C@@H](CCCNC(=N)N)C(=O)N[C@@H](CCCNC(=N)N)C(N)=O [TEM1.0] (Ac-RFFAAFCLRRRPFFAAFCLRR-NH2)	1600 µg/mL																	
NCC[C@H](O)C(=O)N[C@@H]1C[C@H](N)[C@@H](O[C@H]2O[C@H](CN)[C@@H](O)[C@H](O)[C@H]2O)[C@H](O)[C@H]1O[C@H]1O[C@H](CO)[C@@H](O)[C@H](N)[C@H]1O [Amikacin]			S		S	≤ 2 µg/mL	S		S		S	S	≤ 2 µg/mL	S	≤ 2 µg/mL			≤ 2 µg/mL
Ac-RIVVIYTTRRPRIVVIYTTRR-NH2 [TEM7.0]	1600 µg/mL	>100 µg/mL																
Ac-RLLLTTIGRRPRLLLTTIGRR-NH2 [TEM2.0]	800 µg/mL	>100 µg/mL																
CO/N=C(\C(=O)N[C@@H]1C(=O)N2C(C(=O)[O-])=C(C[N+]3(C)CCCC3)CS[C@H]12)c1csc(N)n1 [C ? ime]			R	16 µg/mL (≈ 33.3 µM)	R	≥ 64 µg/mL	R	≥ 64 µg/mL	R	≥ 64 µg/mL	S		2 µg/mL (≈ 4.16 µM)	R	≥ 64 µg/mL		≤ 1 µg/mL	≤ 1 µg/mL
C[C@H]1COc2c(N3CCN(C)CC3)c(F)cc3c(=O)c(C(=O)O)cn1c23 [Levofloxacin]			S		R													
CC(C)(O/N=C(\C(=O)N[C@@H]1C(=O)N2C(C(=O)[O-])=C(C[n+]3ccccc3)CS[C@H]12)c1csc(N)n1)C(=O)O [C ? dime]			R	≥ 64 µg/mL	R	16 µg/mL (≈ 29.3 µM)	R	≥ 64 µg/mL	R	≥ 64 µg/mL	S		≤ 1 µg/mL	R	16 µg/mL (≈ 29.3 µM)		≤ 1 µg/mL	≤ 1 µg/mL
O=C1CN(/N=C/c2ccc([N+](=O)[O-])o2)C(=O)N1 [Nitrofuran ?]			S	≤ 16 µg/mL	S		R	64 µg/mL (≈ 269 µM)	R	64 µg/mL (≈ 269 µM)	S	S	32 µg/mL (≈ 134 µM)	S	≤ 16 µg/mL	S	32 µg/mL (≈ 134 µM)	
CO[C@@]1(NC(=O)C(C(=O)O)c2ccsc2)C(=O)N2[C@@H](C(=O)O)C(C)(C)S[C@@H]21 (some centres unmarked) [T ? cillin]					S													
CO/N=C(\C(=O)N[C@@H]1C(=O)N2C(C(=O)O)=C(COC(C)=O)CS[C@H]12)c1csc(N)n1 [Cef ? axime]			R	≥ 64 µg/mL	R	≥ 64 µg/mL	R	≥ 64 µg/mL	R	≥ 64 µg/mL	S	R	16 µg/mL (≈ 35.1 µM)	R	≥ 64 µg/mL	R	4 µg/mL (≈ 8.78 µM)	≤ 1 µg/mL
Colistin			S	≤ 0.5 µg/mL	S	≤ 0.5 µg/mL	S	≤ 0.5 µg/mL	S	≤ 0.5 µg/mL	S	S	≤ 0.5 µg/mL	S	≤ 0.5 µg/mL	S	≤ 0.5 µg/mL	≤ 0.5 µg/mL
CO/N=C(\C(=O)N[C@@H]1C(=O)N2C(C(=O)OC(C)OC(C)=O)=C(COC(N)=O)CS[C@H]12)c1ccco1 (some centres unmarked)			R		R	≥ 64 µg/mL	R	≥ 64 µg/mL	R	≥ 64 µg/mL	S	R	≥ 64 µg/mL	R	≥ 64 µg/mL	R	≥ 64 µg/mL	4 µg/mL (≈ 7.84 µM)
NC[C@H]1O[C@H](O[C@H]2[C@H](O)[C@@H](O[C@H]3O[C@H](CO)[C@@H](O)[C@H](N)[C@H]3O)[C@H](N)C[C@@H]2N)[C@H](N)C[C@@H]1O [Tobramycin]					S	≤ 1 µg/mL			S		S	S	≤ 1 µg/mL	S	≤ 1 µg/mL			≤ 1 µg/mL
